Measured values as given in patent US20240391923A1, “METHIONINE ADENOSYLTRANSFERASE 2A INHIBITOR FOR TREATING MTAP DELETION-TYPE CANCER” (SUZHOU GENHOUSE BIO CO., LTD., priority 2022, published 2024).
pIC50: −log10 of the molar value. Read-outs that look alike come from different tables or passages of the source.

What was measured:
[1] = target: MAT2A recombinant protein (Homo sapiens, UniProt P31153); test: MAT2A inhibitory activity (malachite green colorimetric enzyme assay); assay type: biochemical
Text: MAT2A catalyzes the reaction of L-methionine and ATP to generate S-adenosylmethionine (SAM), inorganic phosphonic acid, and inorganic diphosphonic acid. Malachite green reacts with inorganic phosphonic acid to generate a green product, and the enzyme activity of MAT2A can be indirectly reflected by detecting the content of the inorganic phosphonic acid in a sample.
The test compounds were formulated using DMSO and diluted 1:3 diluted through 10 concentration points to give a final starting concentration in the reaction system of 1000 nM. The test compounds at different concentrations described above were transferred to a 384-well plate. Experimental buffer (50 mM HEPES pH 7.5, 50 mM KCl, 10 mM MgCl2, 10 mM DTT) was prepared. 2×MAT2A recombinant protein was prepared using the buffer and added to a 384-well plate. A mixed solution of 2×L-methionine and ATP was prepared using the buffer, and added to a 384-well plate. The enzymatic reaction was started, and the reaction was carried out at room temperature for 60 min. 20 μL of a colorimetric detection reagent was added to the above system, and incubated at room temperature for 15 min. The absorbance at 630 nm was measured. The inhibition rate of the compound on the enzyme activity was calculated, and the inhibition rate value and the logarithm value of the compound concentration were fitted using non-linear regression (dose response-variable slope) to give the IC50 value of the test compound.

[2] = tested on: SDMA in HCT116-MTAP-knockout cell line; test: Cell symmetric dimethylarginine (SDMA) test, In-cell Western, HCT116-MTAP-knockout; assay type: cell-based; conditions: Homo sapiens, 96 h
[3] = tested on: SDMA in human colon cancer cell line HCT116; test: Cell symmetric dimethylarginine (SDMA) test, In-cell Western, HCT116 (MTAP wild-type); assay type: cell-based; conditions: Homo sapiens, HCT-116, 96 h
Text: MAT2A catalyzes the reaction of L-methionine and ATP to generate SAM, inorganic phosphonic acid, and inorganic diphosphonic acid. SAM is an important methyl donor, and is a substrate of arginine methyltransferase 5 (PRMT5). PRMT5 catalyzes SDMA modification of multiple proteins within a cell. The intracellular SDMA modification level was detected by ICW (In-cell Western), and the inhibition of the test compound on the enzymatic activity of intracellular MAT2A was indirectly reflected.
In the present application, the human colon cancer cell line HCT116 and the corresponding HCT116-MTAP-knockout cell line were seeded into a 96-well cell culture plate at an appropriate cell density. After 24 h, the cells were treated using the test compounds diluted 1:4 fold at the highest concentration of 6 μM for 6 gradients, and a DMSO treatment group was set up separately. The cells were cultured in a 37° C./5% CO2 incubator for 4 days. To test the inhibitory activity of the test compounds against tumor cell SDMA, the medium was discarded, and the plate was washed 3 times with PBST. 4% paraformaldehyde was then used at room temperature for fixation for 20 min. The fixation solution was discarded, the plate was washed 3 times with PBST, and a special blocking solution was added to each well for blocking at room temperature for 2 h. The blocking solution was discarded. After the plate was washed 3 times with PBST, the plate was incubated with SDMA antibody at 4° C. overnight. The next day, the plate was washed 3 times with PBST. The secondary antibody and DRAQ5 were diluted to an appropriate concentration with the blocking solution, and incubated at room temperature for 2 h; the plate was washed 3 times with PBST, and the fluorescence signals at 700 nm and 800 nm were detected using a Li—COR Odyssey two-color near-infrared laser imager.
The data was then processed. After the corresponding background value was subtracted from each well, statistical analysis was performed on the 800 nm/700 nm ratio for each well, a sigmoidal dose-inhibition curve was plotted using a non-linear regression model, and IC50 values were fitted and calculated. Inhibition Rate (%)=(1−SDMA dose/SDMA DMSO control)*100. SDMA dose is the value of the drug treatment group, and SDMA DMSO control is the value of the DMSO control group.

[4] = IC50 score class, read-out: MAT2A Inhibition (score)
[5] = IC50 score class, read-out: Cell 96 h SDMA Inhibition (HCT116-MTAP−/−) (score)
[6] = read-out: Cell 96 h SDMA Inhibition (HCT116-MTAP−/−)
[7] = IC50 score class, read-out: Cell 96 h SDMA Inhibition (HCT116-MTAP+/+) (score)
[8] = read-out: Cell 96 h SDMA inhibition (HCT116-MTAP+/+)

Sequence of MAT2A recombinant protein (P31153 whole entry): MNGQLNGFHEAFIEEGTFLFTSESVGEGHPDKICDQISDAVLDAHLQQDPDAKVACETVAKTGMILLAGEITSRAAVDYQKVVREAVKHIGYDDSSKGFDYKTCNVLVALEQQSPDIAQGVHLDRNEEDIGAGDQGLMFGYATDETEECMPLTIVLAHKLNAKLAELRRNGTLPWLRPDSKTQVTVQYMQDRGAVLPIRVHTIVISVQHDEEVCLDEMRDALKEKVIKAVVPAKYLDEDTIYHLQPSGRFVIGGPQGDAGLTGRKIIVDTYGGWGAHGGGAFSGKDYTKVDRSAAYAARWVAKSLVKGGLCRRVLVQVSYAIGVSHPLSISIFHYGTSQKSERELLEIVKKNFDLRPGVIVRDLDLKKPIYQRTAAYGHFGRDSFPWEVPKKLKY

SMILES: Cn1cc2c(n1)c(=O)n(-c1cccnc1)c1cc(Cl)c(F)cc21 [Compound B139]
- pIC50 [1, 4]: > 7.00
- pIC50 ([1]; read-out: MAT2A Inhibition): 7.43
- pIC50 [2, 5]: 6.00 to 6.70
- pIC50 [2, 6]: 6.11
- pIC50 [3, 7]: < 5.52
- pIC50 [3, 8]: 5.17

SMILES: Cn1cc2c(n1)c(=O)n(-c1cncc(F)c1)c1nc(C(F)(F)F)ccc21 [Compound B202]
- pIC50 [1, 4]: > 7.00
- pIC50 ([1]; read-out: MAT2A Inhibition): 7.30
- pIC50 [2, 5]: 5.52 to 6.00
- pIC50 [2, 6]: 5.84
- pIC50 [3, 7]: < 5.52
- pIC50 [3, 8]: 4.81

SMILES: Cn1cc2c(n1)c(=O)n(-c1cccc(O)c1)c1cc(Cl)ccc21 [Compound B152]
- pIC50 [1, 4]: > 7.00
- pIC50 ([1]; read-out: MAT2A Inhibition): 7.14
- pIC50 [2, 5]: 6.00 to 6.70
- pIC50 [2, 6]: 6.64
- pIC50 [3, 7]: < 5.52
- pIC50 [3, 8]: 4.76

SMILES: Cn1cc2c(n1)c(=O)n(-c1cccc3[nH]nc(F)c13)c1cc(Cl)c(F)cc21 [Compound B411]
- pIC50 [1, 4]: > 7.00
- pIC50 ([1]; read-out: MAT2A Inhibition): 8.00
- pIC50 [2, 5]: > 6.70
- pIC50 [2, 6]: 8.28
- pIC50 [3, 7]: < 5.52
- pIC50 [3, 8]: < 5.00

SMILES: Cn1cc2c(n1)c(=O)n(-c1cccc3[nH]nc(Cl)c13)c1cc(Cl)c(F)cc21 [Compound B412]
- pIC50 [1, 4]: > 7.00
- pIC50 ([1]; read-out: MAT2A Inhibition): 8.19
- pIC50 [2, 5]: > 6.70
- pIC50 [2, 6]: 8.24
- pIC50 [3, 7]: < 5.52
- pIC50 [3, 8]: < 5.00

SMILES: COc1cc2c3cn(C)nc3c(=O)n(-c3cccnc3)c2cc1Cl [Compound B171]
- pIC50 [1, 4]: > 7.00
- pIC50 ([1]; read-out: MAT2A Inhibition): 7.21
- pIC50 [2, 5]: 6.00 to 6.70
- pIC50 [2, 6]: 6.09
- pIC50 [3, 7]: < 5.52
- pIC50 [3, 8]: < 5.52

SMILES: Cn1cc2c(n1)c(=O)n(-c1cccc(C(N)=O)c1)c1nc(C(F)(F)F)ccc21 [Compound B234]
- pIC50 [1, 4]: > 7.00
- pIC50 ([1]; read-out: MAT2A Inhibition): 7.59
- pIC50 [2, 5]: 5.52 to 6.00
- pIC50 [2, 6]: 5.86
- pIC50 [3, 7]: < 5.52
- pIC50 [3, 8]: < 5.52

SMILES: Cc1ncccc1-n1c(=O)c2nn(C)cc2c2ccc(C3CC3)nc21 [Compound B75]
- pIC50 [1, 4]: > 7.00
- pIC50 ([1]; read-out: MAT2A Inhibition): 7.36
- pIC50 [2, 5]: > 6.70
- pIC50 [2, 6]: 7.84
- pIC50 [3, 7]: 6.00 to 6.70
- pIC50 [3, 8]: 6.53

SMILES: Cn1cc2c(n1)c(=O)n(-c1cccc3[nH]ncc13)c1nc(C(F)(F)F)c(C#N)cc21 [Compound B281]
- pIC50 [1, 4]: > 7.00
- pIC50 ([1]; read-out: MAT2A Inhibition): 7.52
- pIC50 [2, 5]: > 6.70
- pIC50 [2, 6]: 7.60
- pIC50 [3, 7]: < 5.52
- pIC50 [3, 8]: < 5.00

SMILES: Cn1cc2c(n1)c(=O)n(-c1cccc3[nH]nc(Br)c13)c1cc(Cl)ccc21 [Compound B332]
- pIC50 [1, 4]: > 7.00
- pIC50 ([1]; read-out: MAT2A Inhibition): 7.41
- pIC50 [2, 5]: > 6.70
- pIC50 [2, 6]: 8.05
- pIC50 [3, 7]: < 5.52
- pIC50 [3, 8]: < 5.00

SMILES: Cn1cc2c(n1)c(=O)n(-c1cccnc1)c1cc(Cl)cc(F)c21 [Compound B172]
- pIC50 [1, 4]: > 7.00
- pIC50 ([1]; read-out: MAT2A Inhibition): 7.17
- pIC50 [2, 5]: 6.00 to 6.70
- pIC50 [2, 6]: 6.11
- pIC50 [3, 7]: 5.52 to 6.00
- pIC50 [3, 8]: 5.66

SMILES: CCn1nc2c(=O)n(-c3cccnc3)c3cc(Cl)ccc3c2c1C(F)F [Compound B25]
- pIC50 [1, 4]: > 7.00
- pIC50 ([1]; read-out: MAT2A Inhibition): 7.03

SMILES: CCn1cc2c(n1)c(=O)n(-c1cccc(C(F)(F)F)c1)c1cc(Cl)ccc21 [Compound B15]
- pIC50 [1, 4]: < 6.00
- pIC50 ([1]; read-out: MAT2A Inhibition): < 6.00

SMILES: N#Cc1cc2c3cn(C(F)F)nc3c(=O)n(-c3cccc4[nH]ncc34)c2cc1Cl [Compound B283]
- pIC50 [1, 4]: > 7.00
- pIC50 ([1]; read-out: MAT2A Inhibition): 7.06

SMILES: Cn1cc2c(n1)c(=O)n(-c1cccnc1)c1cc(OC(F)(F)F)ccc21 [Compound B78]
- pIC50 [2, 5]: 6.00 to 6.70
- pIC50 [2, 6]: 6.09
- pIC50 [3, 7]: 5.52 to 6.00
- pIC50 [3, 8]: 5.69

SMILES: Cn1cc2c(n1)c(=O)n(Cc1cn[nH]c1)c1nc(C(F)(F)F)ccc21 [Compound B197]
- pIC50 [1, 4]: > 7.00
- pIC50 ([1]; read-out: MAT2A Inhibition): 7.04

SMILES: Cn1cc2c(n1)c(=O)n(-c1cccc3[nH]ncc13)c1cc(C(F)(F)F)c(C#N)cc21 [Compound B391]
- pIC50 [1, 4]: > 7.00
- pIC50 ([1]; read-out: MAT2A Inhibition): 8.00
- pIC50 [2, 5]: > 6.70
- pIC50 [2, 6]: 7.96
- pIC50 [3, 7]: < 5.52
- pIC50 [3, 8]: < 5.00

SMILES: Cn1cc2c(n1)c(=O)n(-c1ccn3ccnc3c1)c1cc(Cl)ccc21 [Compound B205]
- pIC50 [1, 4]: > 7.00
- pIC50 ([1]; read-out: MAT2A Inhibition): 7.15

SMILES: Cn1cc2c(n1)c(=O)n([C@H]1CC[C@H](O)CC1)c1cc(Cl)ccc21 [Compound B109]
- pIC50 [1, 4]: 6.00 to 7.00
- pIC50 ([1]; read-out: MAT2A Inhibition): 6.32

SMILES: CCn1cc2c(n1)c(=O)n(-c1ccc(OC)cc1)c1cc(Cl)ccc21 [Compound B11]
- pIC50 [1, 4]: < 6.00
- pIC50 ([1]; read-out: MAT2A Inhibition): < 6.00

SMILES: CCn1cc2c(n1)c(=O)n(-c1cccnc1)c1cc(OC(F)(F)F)ccc21 [Compound B19]
- pIC50 [1, 4]: 6.00 to 7.00
- pIC50 ([1]; read-out: MAT2A Inhibition): 6.90

SMILES: Cn1cc2c(n1)c(=O)n([C@@H]1CCCOC1)c1cc(Cl)ccc21 [Compound B230]
- pIC50 [1, 4]: 6.00 to 7.00
- pIC50 ([1]; read-out: MAT2A Inhibition): 6.63

SMILES: Cn1cc2c(n1)c(=O)n(-c1cccc3[nH]nc(Br)c13)c1cc(Cl)c(F)cc21 [Compound B413]
- pIC50 [1, 4]: > 7.00
- pIC50 ([1]; read-out: MAT2A Inhibition): 8.13
- pIC50 [2, 5]: > 6.70
- pIC50 [2, 6]: 8.04
- pIC50 [3, 7]: < 5.52
- pIC50 [3, 8]: < 5.00

SMILES: Cn1cc2c(n1)c(=O)n(-c1ccc(OC(F)F)cc1)c1cc(Cl)ccc21 [Compound B186]
- pIC50 [1, 4]: 6.00 to 7.00
- pIC50 ([1]; read-out: MAT2A Inhibition): 6.72

SMILES: O=c1c2nn(C(F)F)cc2c2cc(F)c(Cl)cc2n1-c1cccnc1C(F)(F)F [Compound B339]
- pIC50 [2, 5]: 6.00 to 6.70
- pIC50 [2, 6]: 6.69
- pIC50 [3, 7]: < 5.52
- pIC50 [3, 8]: < 5.00

SMILES: COc1cccc(-n2c(=O)c3nn(C)cc3c3ccc(C(F)(F)F)nc32)c1 [Compound B184]
- pIC50 [1, 4]: 6.00 to 7.00
- pIC50 ([1]; read-out: MAT2A Inhibition): 6.76

SMILES: Cn1cc2c(n1)c(=O)n(Cc1cn[nH]c1)c1cc(Cl)ccc21 [Compound B235]
- pIC50 [1, 4]: 6.00 to 7.00
- pIC50 ([1]; read-out: MAT2A Inhibition): 6.17
- pIC50 [2, 5]: < 5.52
- pIC50 [2, 6]: 5.37
- pIC50 [3, 7]: < 5.52
- pIC50 [3, 8]: < 5.52

SMILES: O=c1c2nn(C(F)F)cc2c2cc(F)c(Cl)cc2n1-c1cccnc1C1CC1 (single isomer, unassigned) [Compound B399]
- pIC50 [3, 7]: < 5.52
- pIC50 [3, 8]: < 5.00
